Measured values from patent US10562895B2, “Pyrroloquinoline quinone B crystal form and preparation method therefor” (ZHUCHENG HAOTIAN PHARM CO., LTD, priority 2015, dated 2020).

Assay: hygroscopicity analysis (DVS)
Type: physicochemical
Description: The crystal form B of pyrroloquinoline quinone provided by the present invention is characterized by solid-state methods, such as an X-ray powder diffraction (XRPD), a thermogravimetric analysis (TG), a differential scanning calorimetry analysis (DSC), an infrared (IR) analysis, and a hygroscopicity analysis (DVS). A solid sample of the crystal form B of pyrroloquinoline quinone obtained in Example 1 was subjected to a hygroscopicity analysis.

Q: What does the source list for `O=C(O)c1cc(C(=O)O)c2c(n1)C(=O)C(=O)c1cc(C(=O)O)[nH]c1-2` [4,5-Dihydro-4,5-dioxo-1H-pyrrolo[2,3-f]quinoline-2,7,9-tricarboxylic acid]?
A: water adsorption / solid form change (at a relative humidity of 85-95%, FIG. 5): adsorbed a molecule of water and was converted into a monohydrate compound; hygroscopicity (solid sample obtained in Example 1, FIG. 5): low hygroscopicity
